Measured values taken from PMC12390684 (Viruses, 2025).
Read-outs that look alike come from different tables or passages of the source.

Legend:
[1] = Cytotoxicity (CellTiter 96 AQueous); format: cell-based; conditions: human
[2] = target: IN-GCN2 interaction (6xHis-IN / GST-GCN2) (UniProt P04585+Q9P2K8); experiment: biochemical; format: binding, HIV-1 IN; human GCN2; conditions: for IC50: IC50, inhibition of IN-GCN2 interaction; for IN-GCN2 interaction (%): screen, single dose 100 µM, single replicate, residual AlphaLISA signal normalized to DMSO control
HIV-1Laï = experiment: microbe, parasite or virus in culture; format: cell-based; conditions: for EC50: Human immunodeficiency virus 1, MAGI
HIV-1 IN [3] = target: T1, HIV-1 IN (Human immunodeficiency virus type 1 group M subtype B, UniProt P04585); conditions: cited from earlier work
HIV-1 IN [4] = target: T1, HIV-1 IN; experiment: Strand transfer (ST) gel-based assay; format: biochemical
[5] = P4 MAGI CCR5+ cells, 24 h, read-out: CC50
[6] = SAR study, fresh dilutions from powder, at least three independent experiments
[7] = 24 h, 24 h infection, read-out: EC50
[8] = plated compounds of the screen, dose-response 100 µM to 46 nM (Figure 1B), n = 9

IN-GCN2 interaction (6xHis-IN / GST-GCN2), sequence (Q9P2K8 192-1024, other chains not shown): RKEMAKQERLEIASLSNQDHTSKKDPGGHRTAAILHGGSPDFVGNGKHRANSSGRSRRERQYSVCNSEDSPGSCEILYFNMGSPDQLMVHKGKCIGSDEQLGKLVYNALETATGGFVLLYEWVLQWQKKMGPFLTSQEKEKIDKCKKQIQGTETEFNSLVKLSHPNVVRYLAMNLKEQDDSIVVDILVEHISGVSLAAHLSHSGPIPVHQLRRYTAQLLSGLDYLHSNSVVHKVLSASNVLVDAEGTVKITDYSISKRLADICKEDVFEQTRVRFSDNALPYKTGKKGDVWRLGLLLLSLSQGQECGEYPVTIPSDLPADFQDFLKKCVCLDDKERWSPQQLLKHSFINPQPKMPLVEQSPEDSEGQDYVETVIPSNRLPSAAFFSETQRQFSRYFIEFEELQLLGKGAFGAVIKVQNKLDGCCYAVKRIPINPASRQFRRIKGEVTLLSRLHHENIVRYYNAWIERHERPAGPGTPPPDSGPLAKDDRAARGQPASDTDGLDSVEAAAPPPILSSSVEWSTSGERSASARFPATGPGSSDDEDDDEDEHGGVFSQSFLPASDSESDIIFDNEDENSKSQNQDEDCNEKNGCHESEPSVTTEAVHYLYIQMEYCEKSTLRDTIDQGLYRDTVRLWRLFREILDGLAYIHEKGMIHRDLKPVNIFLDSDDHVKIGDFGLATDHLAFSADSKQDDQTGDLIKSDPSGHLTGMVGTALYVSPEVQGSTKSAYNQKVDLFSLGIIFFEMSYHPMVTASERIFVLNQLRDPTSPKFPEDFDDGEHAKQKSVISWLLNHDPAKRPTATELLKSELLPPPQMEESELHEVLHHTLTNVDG

Compound | CC50 at 24 h [1, 5] | IC50 [2, 6] | EC50 (HIV-1Laï; [7]) | CC50 at 24 h [1] | other results
N#CCCNc1ccc(NCCC#N)c2c1C(=O)c1c(O)ccc(O)c1C2=O [Compound 2m] | > 5 µM | 16 µM | > 5 µM | – | –
CCCCC1CCCCCCc2[nH]c(C=C3N=C(c4ccc[nH]4)C=C3OC)cc21 (stereo not shown) [NSC247562] | – | – | – | – | CC50 ([1]; 24 h, read-out: CC50): 3.85 µM; IC50 [2, 8]: 1.45 µM; IN-GCN2 interaction (%) [2]: 8.97%; nontoxic concentrations at which a proviral effect was seen (HIV-1Laï; Figure S5): < 200 nM
O=C1c2c(O)ccc(O)c2C(=O)c2c(NCCCCO)ccc(NCCCCO)c21 [Compound 2i] | > 5 µM | 11.2 µM | > 5 µM | – | –
O=C1c2c(O)ccc(O)c2C(=O)c2c(NCCOCCO)ccc(NCCOCCO)c21 [Compound 2g] | – | 6.6 µM | > 5 µM | > 5 µM | –
O=C1c2c(O)ccc(O)c2C(=O)c2c(NCCCO)ccc(NCCCO)c21 [Compound 2l] | > 5 µM | 13 µM | > 5 µM | – | –
COc1cc2c3c(cc4ccccc4c3c1O)N(C)CC2 [NSC785168] | – | 17 µM | > 5 µM | – | CC50 ([1]; 24 h, read-out: CC50): > 5 µM; IC50 [2, 8]: 5.7 µM; IN-GCN2 interaction (%) [2]: 4.53%
COc1cccc2c1C(=O)c1c(O)c3c(c(O)c1C2=O)C[C@@](O)(C(=O)CO)C[C@@H]3O[C@H]1C[C@H](N2CCOCC2)[C@H](O)[C@H](C)O1 [NSC354646, reference compound] | – | – | – | – | inhibition of IN in vitro, in words (HIV-1 IN [3]): micromolar inhibitors
O=C1c2c(O)ccc(O)c2C(=O)c2c(NCCO)ccc(NCCO)c21 [Compound 2e] | – | 4.4 µM | > 5 µM | > 5 µM | –
O=C1c2ccccc2C(=O)c2c(NCCNCCO)ccc(O)c21 [Compound 2d] | > 5 µM | 1.2 µM | – | – | fold loss of potency at inhibiting ST compared to NSC279836 (HIV-1 IN [4]): around 20 fold; ST activity compared to the DMSO control (HIV-1 IN [4]; increase at lower concentrations): up to 170%; viral replication, maximum, relative to DMSO control (HIV-1Laï; dose-dependent increase (pro-viral effect)): up to 290%
O=C1c2c(O)ccc(O)c2C(=O)c2c(NCCCCCO)ccc(NCCCCCO)c21 [Compound 2k] | > 5 µM | 12.2 µM | > 5 µM | – | –
COc1cc(OC)c2c(O)c3c(c(-c4ccc5cc6c(c(O)c5c4O)C(=O)CC(C)(O)C6)c2c1)CC(C)OC3C (stereo not shown) [Compound 2b, Karwinskia toxin T-544] | – | – | > 5 µM | – | CC50 at 24 h ([1]; 24 h, read-out: CC50): > 5 µM; IC50 (HIV-1 IN [3]; read-out: IC50, inhibition of both 3′-P and ST): 21 µM
CCC1(O)CC(OC2CC(N(C)C)C(O)C(C)O2)c2c(cc3c(c2O)C(=O)c2c(O)cccc2C3=O)C1C(=O)OC (stereo not shown) [Compound 1f] | – | 3.23 µM | – | – | CC50 ([1]; 24 h, read-out: CC50): 2.35 µM; IN-GCN2 interaction (%) [2]: 43.80%; EC50 (HIV-1Laï; 24 h infection, read-out: EC50): 1.39 µM
CCOC(OCC)C(=O)OCC(=O)C1(O)Cc2c(O)c3c(c(O)c2C(OC2CC(N)C(O)C(C)O2)C1)C(=O)c1c(OC)cccc1C3=O (stereo not shown) [Compound 1i] | – | 8.05 µM | – | > 5 µM | EC50 (HIV-1Laï; 24 h): > 5 µM
COc1cccc2c1C(=O)c1c(O)c3c(c(O)c1C2=O)CC(O)(C(C)=O)CC3OC1CC([N+](C)(C)C)C(O)C(C)O1 (stereo not shown) [Compound 1q] | – | 75 µM | > 5 µM | – | CC50 ([1]; 24 h, read-out: CC50): > 5 µM
COc1cccc2c1C(=O)c1c(O)c3c(c(O)c1C2=O)CC(O)(C(=O)CO)CC3OC1CC(N(C)C)C(O)C(C)O1 (stereo not shown) [Compound 1r] | – | > 100 µM | – | 0.225 µM | inhibition of IN in vitro, in words (HIV-1 IN [3]): micromolar inhibitors
CC(=O)Nc1ccc(Nc2ccc(NCCO)c3c2C(=O)c2c(O)ccc(O)c2C3=O)cc1 [Compound 2h] | > 5 µM | 10.6 µM | > 5 µM | – | –
COc1cc2c(cc1OC)-c1c3c(cc4c1[C@H](C2)N(C)CC4)OCO3 [Compound 3e] | – | 73 µM | > 5 µM | > 5 µM | –
COc1ccc2ccccc2c1/C=C/C(=O)c1ccc(OCc2ccccc2)cc1O [Compound 2a] | > 5 µM | 2.6 µM | – | – | effect on HIV replication, in words (HIV-1Laï): pro-viral
COc1cc2c3c(c1)-c1c(ccc(OC)c1O)CC3N(C)CC2 (stereo not shown) [Compound 3i] | – | > 100 µM | > 5 µM | > 5 µM | –
